Measured values from US6156700A, “3-(1,2-Benzisothiazol- and isoxazol-5-yl)-2,4(1H,3H)-pyrimidinedione or thione and 3-(1,2-benzisothiazol- and isoxazol-5-yl)-4(3H)-pyrimidinone or thione herbicidal agents” (American Cyanmid Company, priority 1998, dated 2000).

Columns and labels:
ABUTH [1] = test: Preemergence herbicidal evaluation; type: in vivo; set-up: scale not given here
Description: (§1) The preemergence and postemergence herbicidal properties of certain compounds of the present invention are compared with certain compounds disclosed in U.S. Pat. Nos. 5,484,763 and 5,523,278. The evaluations are performed as described in Examples 185 and 186. Data in Tables V and VI are reported by the compound number given in Example 185 for the compounds of this invention or by comparative compound letter for the compounds disclosed in U.S. Pat. Nos. 5,484,763 and 5,523,278.

AMBEL [2] = test: Preemergence herbicidal evaluation; type: in vivo; set-up: scale not given here
Description: as §1

CASOB [3] = test: Preemergence herbicidal evaluation; type: in vivo; set-up: scale not given here
Description: as §1

CHEAL [4] = test: Preemergence herbicidal evaluation; type: in vivo; set-up: scale not given here
Description: as §1

ECHCG [5] = test: Preemergence herbicidal evaluation; type: in vivo; set-up: scale not given here
Description: as §1

GALAP [6] = test: Preemergence herbicidal evaluation; type: in vivo; set-up: scale not given here
Description: as §1

GLXMAW [7] = test: Preemergence herbicidal evaluation; type: in vivo; set-up: scale not given here
Description: as §1

IPOSS [8] = test: Preemergence herbicidal evaluation; type: in vivo; set-up: scale not given here
Description: as §1

SETVI [9] = test: Preemergence herbicidal evaluation; type: in vivo; set-up: scale not given here
Description: as §1

ZEAMX [10] = test: Preemergence herbicidal evaluation; type: in vivo; set-up: scale not given here
Description: as §1

ORYSAT [11] = test: Preemergence herbicidal evaluation; type: in vivo, Oryza sativa; set-up: scale not given here
Description: as §1

ABUTH [12] = test: Postemergence herbicidal evaluation; type: in vivo
AMBEL [13] = test: Postemergence herbicidal evaluation; type: in vivo
CASOB [14] = test: Postemergence herbicidal evaluation; type: in vivo
CHEAL [15] = test: Postemergence herbicidal evaluation; type: in vivo
GALAP [16] = test: Postemergence herbicidal evaluation; type: in vivo
IPOSS [17] = test: Postemergence herbicidal evaluation; type: in vivo
ECHCG [18] = test: Postemergence herbicidal evaluation; type: in vivo
SETVI [19] = test: Postemergence herbicidal evaluation; type: in vivo
GLXMAW [20] = test: Postemergence herbicidal evaluation; type: in vivo
ORYSAT [21] = test: Postemergence herbicidal evaluation; type: in vivo, Oryza sativa
ZEAMX [22] = test: Postemergence herbicidal evaluation; type: in vivo

Cc1nsc2ccc(N3C(=O)C4=C(CCCC4)C3=O)cc12 [B]
herbicidal effect rating (ABUTH [1]; 0.0313-0.0320 kg/ha): 0.0
herbicidal effect rating (ABUTH [1]; 0.0620-0.0630 kg/ha): 3.0
herbicidal effect rating (ABUTH [1]; 0.2500 kg/ha): 2.0
herbicidal effect rating (ABUTH [1]; 0.5000 kg/ha): 5.0
herbicidal effect rating (AMBEL [2]; 0.0313-0.0320 kg/ha): 0.0
herbicidal effect rating (AMBEL [2]; 0.0620-0.0630 kg/ha): 0.0
herbicidal effect rating (AMBEL [2]; 0.1250 kg/ha): 2.0
herbicidal effect rating (AMBEL [2]; 0.2500 kg/ha): 3.0
herbicidal effect rating (AMBEL [2]; 0.5000 kg/ha): 8.0
herbicidal effect rating (CASOB [3]; 0.0313-0.0320 kg/ha): 0.0
herbicidal effect rating (CASOB [3]; 0.0620-0.0630 kg/ha): 0.0
herbicidal effect rating (CASOB [3]; 0.1250 kg/ha): 0.0
herbicidal effect rating (CASOB [3]; 0.2500 kg/ha): 0.0
herbicidal effect rating (CASOB [3]; 0.5000 kg/ha): 0.0
herbicidal effect rating (CHEAL [4]; 0.0313-0.0320 kg/ha): 9.0
herbicidal effect rating (CHEAL [4]; 0.0620-0.0630 kg/ha): 6.0
herbicidal effect rating (CHEAL [4]; 0.1250 kg/ha): 9.0
herbicidal effect rating (CHEAL [4]; 0.2500 kg/ha): 9.0
herbicidal effect rating (CHEAL [4]; 0.5000 kg/ha): 9.0
herbicidal effect rating (ECHCG [5]; 0.0313-0.0320 kg/ha): 0.0
herbicidal effect rating (ECHCG [5]; 0.0620-0.0630 kg/ha): 0.0
herbicidal effect rating (ECHCG [5]; 0.1250 kg/ha): 3.0
herbicidal effect rating (ECHCG [5]; 0.2500 kg/ha): 5.0
herbicidal effect rating (ECHCG [5]; 0.5000 kg/ha): 5.0
herbicidal effect rating (GALAP [6]; 0.0313-0.0320 kg/ha): 0.0
herbicidal effect rating (GALAP [6]; 0.0620-0.0630 kg/ha): 0.0
herbicidal effect rating (GALAP [6]; 0.1250 kg/ha): 5.0
herbicidal effect rating (GALAP [6]; 0.2500 kg/ha): 9.0
herbicidal effect rating (GALAP [6]; 0.5000 kg/ha): 7.0
herbicidal effect rating (GLXMAW [7]; 0.0313-0.0320 kg/ha): 0.0
herbicidal effect rating (GLXMAW [7]; 0.0620-0.0630 kg/ha): 0.0
herbicidal effect rating (GLXMAW [7]; 0.1250 kg/ha): 0.0
herbicidal effect rating (GLXMAW [7]; 0.2500 kg/ha): 1.0
herbicidal effect rating (GLXMAW [7]; 0.5000 kg/ha): 1.0
herbicidal effect rating (IPOSS [8]; 0.0313-0.0320 kg/ha): 0.0
herbicidal effect rating (IPOSS [8]; 0.0620-0.0630 kg/ha): 0.0
herbicidal effect rating (IPOSS [8]; 0.1250 kg/ha): 0.0
herbicidal effect rating (IPOSS [8]; 0.2500 kg/ha): 2.0
herbicidal effect rating (IPOSS [8]; 0.5000 kg/ha): 5.0
herbicidal effect rating (SETVI [9]; 0.0313-0.0320 kg/ha): 0.0
herbicidal effect rating (SETVI [9]; 0.0620-0.0630 kg/ha): 0.0
herbicidal effect rating (SETVI [9]; 0.1250 kg/ha): 2.0
herbicidal effect rating (SETVI [9]; 0.2500 kg/ha): 6.0
herbicidal effect rating (SETVI [9]; 0.5000 kg/ha): 4.0
herbicidal effect rating (ZEAMX [10]; 0.0313-0.0320 kg/ha): 0.0
herbicidal effect rating (ZEAMX [10]; 0.0620-0.0630 kg/ha): 0.0
herbicidal effect rating (ZEAMX [10]; 0.1250 kg/ha): 0.0
herbicidal effect rating (ZEAMX [10]; 0.2500 kg/ha): 0.0
herbicidal effect rating (ZEAMX [10]; 0.5000 kg/ha): 1.0
herbicidal effect rating (ORYSAT [11]; 0.0313-0.0320 kg/ha): 0.0
herbicidal effect rating (ORYSAT [11]; 0.0620-0.0630 kg/ha): 0.0
herbicidal effect rating (ORYSAT [11]; 0.1250 kg/ha): 2.0
herbicidal effect rating (ORYSAT [11]; 0.2500 kg/ha): 2.0
herbicidal effect rating (ORYSAT [11]; 0.5000 kg/ha): 4.0
herbicidal effect rating (ABUTH [12]; 0.0157-0.0160 kg/ha): 8.0
herbicidal effect rating (ABUTH [12]; 0.0313-0.0320 kg/ha): 8.0
herbicidal effect rating (ABUTH [12]; 0.0625-0.0640 kg/ha): 9.0
herbicidal effect rating (ABUTH [12]; 0.1250 kg/ha): 9.0
herbicidal effect rating (ABUTH [12]; 0.2500 kg/ha): 9.0
herbicidal effect rating (ABUTH [12]; 0.5000 kg/ha): 9.0
herbicidal effect rating (AMBEL [13]; 0.0157-0.0160 kg/ha): 2.0
herbicidal effect rating (AMBEL [13]; 0.0313-0.0320 kg/ha): 6.0
herbicidal effect rating (AMBEL [13]; 0.0625-0.0640 kg/ha): 8.0
herbicidal effect rating (AMBEL [13]; 0.1250 kg/ha): 8.0
herbicidal effect rating (AMBEL [13]; 0.2500 kg/ha): 9.0
herbicidal effect rating (AMBEL [13]; 0.5000 kg/ha): 9.0
herbicidal effect rating (CASOB [14]; 0.0157-0.0160 kg/ha): 6.0
herbicidal effect rating (CASOB [14]; 0.0313-0.0320 kg/ha): 7.0
herbicidal effect rating (CASOB [14]; 0.0625-0.0640 kg/ha): 8.0
herbicidal effect rating (CASOB [14]; 0.1250 kg/ha): 8.0
herbicidal effect rating (CASOB [14]; 0.2500 kg/ha): 9.0
herbicidal effect rating (CASOB [14]; 0.5000 kg/ha): 9.0
herbicidal effect rating (CHEAL [15]; 0.0157-0.0160 kg/ha): 3.0
herbicidal effect rating (CHEAL [15]; 0.0313-0.0320 kg/ha): 7.0
herbicidal effect rating (CHEAL [15]; 0.0625-0.0640 kg/ha): 7.0
herbicidal effect rating (CHEAL [15]; 0.1250 kg/ha): 9.0
herbicidal effect rating (CHEAL [15]; 0.2500 kg/ha): 8.0
herbicidal effect rating (CHEAL [15]; 0.5000 kg/ha): 9.0
herbicidal effect rating (GALAP [16]; 0.0157-0.0160 kg/ha): 5.0
herbicidal effect rating (GALAP [16]; 0.0313-0.0320 kg/ha): 7.0
herbicidal effect rating (GALAP [16]; 0.0625-0.0640 kg/ha): 7.0
herbicidal effect rating (GALAP [16]; 0.1250 kg/ha): 7.0
herbicidal effect rating (GALAP [16]; 0.2500 kg/ha): 8.0
herbicidal effect rating (GALAP [16]; 0.5000 kg/ha): 8.0
herbicidal effect rating (IPOSS [17]; 0.0157-0.0160 kg/ha): 6.0
herbicidal effect rating (IPOSS [17]; 0.0313-0.0320 kg/ha): 7.0
herbicidal effect rating (IPOSS [17]; 0.0625-0.0640 kg/ha): 8.0
herbicidal effect rating (IPOSS [17]; 0.1250 kg/ha): 8.0
herbicidal effect rating (IPOSS [17]; 0.2500 kg/ha): 8.0
herbicidal effect rating (IPOSS [17]; 0.5000 kg/ha): 9.0
herbicidal effect rating (ECHCG [18]; 0.0157-0.0160 kg/ha): 0.0
herbicidal effect rating (ECHCG [18]; 0.0313-0.0320 kg/ha): 2.0
herbicidal effect rating (ECHCG [18]; 0.0625-0.0640 kg/ha): 2.0
herbicidal effect rating (ECHCG [18]; 0.1250 kg/ha): 4.0
herbicidal effect rating (ECHCG [18]; 0.2500 kg/ha): 5.0
herbicidal effect rating (ECHCG [18]; 0.5000 kg/ha): 6.0
herbicidal effect rating (SETVI [19]; 0.0157-0.0160 kg/ha): 0.0
herbicidal effect rating (SETVI [19]; 0.0313-0.0320 kg/ha): 0.0
herbicidal effect rating (SETVI [19]; 0.0625-0.0640 kg/ha): 2.0
herbicidal effect rating (SETVI [19]; 0.1250 kg/ha): 4.0
herbicidal effect rating (SETVI [19]; 0.2500 kg/ha): 5.0
herbicidal effect rating (SETVI [19]; 0.5000 kg/ha): 5.0
herbicidal effect rating (GLXMAW [20]; 0.0157-0.0160 kg/ha): 5.5
herbicidal effect rating (GLXMAW [20]; 0.0313-0.0320 kg/ha): 5.5
herbicidal effect rating (GLXMAW [20]; 0.0625-0.0640 kg/ha): 5.5
herbicidal effect rating (GLXMAW [20]; 0.1250 kg/ha): 6.0
herbicidal effect rating (GLXMAW [20]; 0.2500 kg/ha): 7.0
herbicidal effect rating (GLXMAW [20]; 0.5000 kg/ha): 7.5
herbicidal effect rating (ORYSAT [21]; 0.0157-0.0160 kg/ha): 3.5
herbicidal effect rating (ORYSAT [21]; 0.0313-0.0320 kg/ha): 4.0
herbicidal effect rating (ORYSAT [21]; 0.0625-0.0640 kg/ha): 4.5
herbicidal effect rating (ORYSAT [21]; 0.1250 kg/ha): 4.5
herbicidal effect rating (ORYSAT [21]; 0.2500 kg/ha): 5.5
herbicidal effect rating (ORYSAT [21]; 0.5000 kg/ha): 6.0
herbicidal effect rating (ZEAMX [22]; 0.0157-0.0160 kg/ha): 5.0
herbicidal effect rating (ZEAMX [22]; 0.0313-0.0320 kg/ha): 5.5
herbicidal effect rating (ZEAMX [22]; 0.0625-0.0640 kg/ha): 5.0
herbicidal effect rating (ZEAMX [22]; 0.1250 kg/ha): 5.5
herbicidal effect rating (ZEAMX [22]; 0.2500 kg/ha): 6.0
herbicidal effect rating (ZEAMX [22]; 0.5000 kg/ha): 5.5
